Experimental data from ChEMBL document CHEMBL1201862, “PubChem BioAssay data set” (2004).
One block for each molecule: values may come before it. Active and inactive are the calls of the source.

Assays:
[1] = target: T1, DNA repair and recombination protein RAD54-like (Homo sapiens, UniProt Q92698); assay: inhibitors of human RAD54 branch migration, confirmation, biochemical, fluorescence, cherry-picked samples, dose series (AID 651657); type: functional
T1 sequence (Q92698 whole entry): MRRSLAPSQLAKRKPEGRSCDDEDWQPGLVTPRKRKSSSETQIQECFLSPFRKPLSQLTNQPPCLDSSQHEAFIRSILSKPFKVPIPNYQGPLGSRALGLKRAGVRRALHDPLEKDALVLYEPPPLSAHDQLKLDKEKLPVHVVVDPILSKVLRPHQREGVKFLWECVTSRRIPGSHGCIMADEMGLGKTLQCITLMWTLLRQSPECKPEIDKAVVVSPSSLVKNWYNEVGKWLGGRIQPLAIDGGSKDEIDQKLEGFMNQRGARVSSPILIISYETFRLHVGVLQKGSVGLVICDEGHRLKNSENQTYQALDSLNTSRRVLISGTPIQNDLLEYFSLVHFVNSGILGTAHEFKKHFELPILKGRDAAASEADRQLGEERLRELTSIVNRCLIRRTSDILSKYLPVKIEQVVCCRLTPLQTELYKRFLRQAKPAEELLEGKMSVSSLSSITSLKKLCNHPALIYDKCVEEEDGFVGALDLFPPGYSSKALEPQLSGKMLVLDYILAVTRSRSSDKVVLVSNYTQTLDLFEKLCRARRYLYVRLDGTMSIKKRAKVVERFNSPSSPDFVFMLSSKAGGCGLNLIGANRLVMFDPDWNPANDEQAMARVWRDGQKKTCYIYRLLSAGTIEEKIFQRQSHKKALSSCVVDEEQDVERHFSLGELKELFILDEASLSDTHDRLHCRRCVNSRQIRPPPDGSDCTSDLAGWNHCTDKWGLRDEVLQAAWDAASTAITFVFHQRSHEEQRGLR

[2] = target: T2, DNA repair protein RAD52 homolog (Homo sapiens, UniProt P43351); type: functional, biochemical
T2 sequence (P43351 whole entry): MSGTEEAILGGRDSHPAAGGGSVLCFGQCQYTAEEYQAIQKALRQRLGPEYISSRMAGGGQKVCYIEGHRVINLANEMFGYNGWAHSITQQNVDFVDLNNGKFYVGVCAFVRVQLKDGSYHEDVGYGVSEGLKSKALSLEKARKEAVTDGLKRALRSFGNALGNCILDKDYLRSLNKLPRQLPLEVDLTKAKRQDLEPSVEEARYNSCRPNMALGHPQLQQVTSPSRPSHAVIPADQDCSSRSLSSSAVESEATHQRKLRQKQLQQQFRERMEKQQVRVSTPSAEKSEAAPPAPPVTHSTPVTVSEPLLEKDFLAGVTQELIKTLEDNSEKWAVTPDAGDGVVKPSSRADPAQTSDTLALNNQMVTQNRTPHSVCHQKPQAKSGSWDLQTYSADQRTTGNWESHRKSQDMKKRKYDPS

Cytochrome P450 2D6 = Cytochrome P450 2D6 (Homo sapiens, UniProt P10635);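 note: CYP2D6 member of a cytochrome P450 panel assay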
Cytochrome P450 2C19 = Cytochrome P450 2C19 (Homo sapiens, UniProt P33261); assay: Cytochrome panel assay with activity outcomes. Panel member name: p450-cyp2c19 Compounds with AC50 equal or less than 10 uM are considered active; type: functional
[3] = target: Photoreceptor-specific nuclear receptor (Homo sapiens, UniProt Q9Y5X4); type: functional, cell-based;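 note: CHO-S cells with Gal4-NCOR and VP16-NR2E3 two-hybrid luciferase reporter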
INS1 = assay: beta cell apoptosis inhibitors, cytokine rescue, dose response, luminescence, retest (AID 449756); type: functional, cell-based; settings: Rattus norvegicus;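 note: cell death triggered by IL-1 beta plus TNF-alpha plus IFN-gamma mixture; protective hits raise ATP signal compared with cytokine alone wells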
Cytochrome P450 3A4 = Cytochrome P450 3A4 (Homo sapiens, UniProt P08684);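 note: CYP3A4 tested as one member of a cytochrome P450 panel screen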
Cytochrome P450 1A2 = target: T3, Cytochrome P450 1A2 (Homo sapiens, UniProt P05177);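 note: PubChem cytochrome P450 panel assay, CYP1A2 panel member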
T3 sequence (P05177 whole entry): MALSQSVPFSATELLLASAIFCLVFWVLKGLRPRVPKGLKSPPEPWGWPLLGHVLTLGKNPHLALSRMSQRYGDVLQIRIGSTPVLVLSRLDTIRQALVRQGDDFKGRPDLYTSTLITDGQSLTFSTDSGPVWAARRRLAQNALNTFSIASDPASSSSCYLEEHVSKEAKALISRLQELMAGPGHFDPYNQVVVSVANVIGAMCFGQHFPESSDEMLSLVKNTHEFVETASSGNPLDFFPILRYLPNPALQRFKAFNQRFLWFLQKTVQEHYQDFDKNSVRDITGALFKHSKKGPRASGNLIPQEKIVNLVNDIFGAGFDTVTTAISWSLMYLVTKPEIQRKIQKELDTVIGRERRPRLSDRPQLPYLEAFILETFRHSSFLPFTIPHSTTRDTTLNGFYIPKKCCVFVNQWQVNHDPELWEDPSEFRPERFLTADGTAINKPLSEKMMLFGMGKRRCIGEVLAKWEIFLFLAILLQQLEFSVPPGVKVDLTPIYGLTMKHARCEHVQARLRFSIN

Cytochrome P450 2C9 [4] = target: T4, Cytochrome P450 2C9 (Homo sapiens, UniProt P11712)
[5] = target: T5, Corticotropin-releasing factor receptor 2/Corticotropin-releasing factor-binding protein (Homo sapiens, UniProt P24387+Q13324); assay: Dose Response confirmation of uHTS hits for small molecule antagonists of the CRF-binding protein and CRF-R2 receptor complex.; type: functional; settings: read-out: IC50_Mean
T5 sequence (Q13324 whole entry): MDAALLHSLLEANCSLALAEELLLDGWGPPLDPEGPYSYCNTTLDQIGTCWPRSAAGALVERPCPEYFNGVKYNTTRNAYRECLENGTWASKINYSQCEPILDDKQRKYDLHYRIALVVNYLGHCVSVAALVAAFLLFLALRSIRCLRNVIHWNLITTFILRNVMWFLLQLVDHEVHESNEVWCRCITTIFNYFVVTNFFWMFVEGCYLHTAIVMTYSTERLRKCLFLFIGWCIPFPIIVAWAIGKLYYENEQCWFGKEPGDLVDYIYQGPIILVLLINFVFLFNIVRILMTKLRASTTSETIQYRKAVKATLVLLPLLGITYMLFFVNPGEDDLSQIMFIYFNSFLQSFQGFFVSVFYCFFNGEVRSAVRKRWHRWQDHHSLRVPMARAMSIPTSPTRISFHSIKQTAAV
T5 sequence (P24387 whole entry): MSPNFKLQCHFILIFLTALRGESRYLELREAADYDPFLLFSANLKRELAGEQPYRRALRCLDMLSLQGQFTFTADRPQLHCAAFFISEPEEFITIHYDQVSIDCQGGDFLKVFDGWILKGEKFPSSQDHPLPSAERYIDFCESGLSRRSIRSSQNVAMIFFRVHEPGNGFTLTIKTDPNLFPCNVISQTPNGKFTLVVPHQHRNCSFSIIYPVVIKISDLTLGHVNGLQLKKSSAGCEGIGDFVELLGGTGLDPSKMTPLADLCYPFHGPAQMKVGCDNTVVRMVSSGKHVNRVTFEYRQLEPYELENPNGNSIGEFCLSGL

[6] = inhibitors of intracellular T. cruzi replication, confirmation, NIH3T3 host cells, beta-gal luminescence (AID 2044); type: functional, cell-based;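 note: intracellular parasites grown in NIH/3T3 mouse fibroblasts as host cells; luminescent beta-galactosidase reporter signal from transgenic T. cruzi replicating inside host cells; inhibitors lower the luminescence signal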
[7] = target: T5, Corticotropin-releasing factor receptor 2/Corticotropin-releasing factor-binding protein; assay: activators of CRF receptor 2 with binding protein – uHTS hits, confirmation (AID 602473); type: functional; settings: read-out: EC50_Mean
[8] = CRF-BP/CRF-R2 complex antagonists, dose response, cell-based, uHTS hits, 384-well (AID 651639); type: functional, Homo sapiens; settings: read-out: IC50_Mean
[9] = cytotoxicity toward NIH3T3 fibroblasts, dose response, counter-screen, cell-based, ATP luminescence, mouse fibroblasts (AID 2010); type: functional; settings: NIH3T3;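 note: cells exposed to compound for about 90 hours before reading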
Genome polyprotein = Genome polyprotein (dengue virus type 2, UniProt P29990); assay: Dengue-2 NS5 methyltransferase inhibitors, primary screen, biochemical, confirmation dose response (AID 588689); type: functional
Aminopeptidase N = target: T6, Aminopeptidase N (Plasmodium falciparum FcB1/Columbia, UniProt O96935); assay: P. falciparum M1AAP inhibitors, biochemical, fluorogenic H-Leu-NHMec substrate, 1536-well (AID 1445); parameters: species or system Plasmodium falciparum 3D7, 3D7
T6 sequence (O96935 whole entry): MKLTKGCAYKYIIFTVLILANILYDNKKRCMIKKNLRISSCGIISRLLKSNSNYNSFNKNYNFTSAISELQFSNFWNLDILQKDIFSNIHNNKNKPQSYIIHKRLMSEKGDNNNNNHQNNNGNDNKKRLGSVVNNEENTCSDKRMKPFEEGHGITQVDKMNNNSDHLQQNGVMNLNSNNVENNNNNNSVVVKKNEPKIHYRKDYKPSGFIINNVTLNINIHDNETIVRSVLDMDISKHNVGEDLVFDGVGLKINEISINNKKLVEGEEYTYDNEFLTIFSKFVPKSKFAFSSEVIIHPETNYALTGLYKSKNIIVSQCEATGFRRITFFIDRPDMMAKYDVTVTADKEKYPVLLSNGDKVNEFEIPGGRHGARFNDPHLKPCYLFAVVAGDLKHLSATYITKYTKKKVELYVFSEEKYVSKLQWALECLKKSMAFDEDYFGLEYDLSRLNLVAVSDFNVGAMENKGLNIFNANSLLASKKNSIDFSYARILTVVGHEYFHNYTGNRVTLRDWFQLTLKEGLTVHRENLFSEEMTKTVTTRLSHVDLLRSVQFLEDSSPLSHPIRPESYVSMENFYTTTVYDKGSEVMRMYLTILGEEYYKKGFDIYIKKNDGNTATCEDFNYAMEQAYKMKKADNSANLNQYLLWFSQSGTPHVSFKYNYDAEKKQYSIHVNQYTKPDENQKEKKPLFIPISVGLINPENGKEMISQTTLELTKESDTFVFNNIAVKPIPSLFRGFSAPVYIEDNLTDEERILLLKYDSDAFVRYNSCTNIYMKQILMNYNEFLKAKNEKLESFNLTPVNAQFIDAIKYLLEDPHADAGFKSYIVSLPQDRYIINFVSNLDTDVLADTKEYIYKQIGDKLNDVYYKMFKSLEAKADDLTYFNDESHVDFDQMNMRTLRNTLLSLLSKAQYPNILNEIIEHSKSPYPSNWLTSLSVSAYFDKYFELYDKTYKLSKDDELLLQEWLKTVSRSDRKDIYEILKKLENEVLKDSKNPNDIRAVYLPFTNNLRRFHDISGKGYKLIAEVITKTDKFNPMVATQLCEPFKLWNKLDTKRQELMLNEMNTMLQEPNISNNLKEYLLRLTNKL

Cytochrome P450 2C9 [10] = target: T4, Cytochrome P450 2C9; remark: listed apart in the source

T4 sequence (P11712 whole entry): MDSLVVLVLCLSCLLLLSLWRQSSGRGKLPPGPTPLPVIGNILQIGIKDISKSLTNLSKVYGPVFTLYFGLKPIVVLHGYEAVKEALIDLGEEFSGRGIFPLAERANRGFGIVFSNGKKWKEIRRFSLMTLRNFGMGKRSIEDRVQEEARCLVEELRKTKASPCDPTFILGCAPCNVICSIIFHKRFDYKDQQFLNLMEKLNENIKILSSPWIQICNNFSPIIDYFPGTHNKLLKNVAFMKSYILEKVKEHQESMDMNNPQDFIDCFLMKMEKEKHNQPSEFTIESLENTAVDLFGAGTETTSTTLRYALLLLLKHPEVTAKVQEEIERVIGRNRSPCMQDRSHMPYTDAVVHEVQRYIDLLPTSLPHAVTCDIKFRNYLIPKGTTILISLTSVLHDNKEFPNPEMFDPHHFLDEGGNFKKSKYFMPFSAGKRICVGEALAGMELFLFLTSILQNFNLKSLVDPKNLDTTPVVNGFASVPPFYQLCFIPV
Cytochrome P450 3A4, sequence (P08684 whole entry): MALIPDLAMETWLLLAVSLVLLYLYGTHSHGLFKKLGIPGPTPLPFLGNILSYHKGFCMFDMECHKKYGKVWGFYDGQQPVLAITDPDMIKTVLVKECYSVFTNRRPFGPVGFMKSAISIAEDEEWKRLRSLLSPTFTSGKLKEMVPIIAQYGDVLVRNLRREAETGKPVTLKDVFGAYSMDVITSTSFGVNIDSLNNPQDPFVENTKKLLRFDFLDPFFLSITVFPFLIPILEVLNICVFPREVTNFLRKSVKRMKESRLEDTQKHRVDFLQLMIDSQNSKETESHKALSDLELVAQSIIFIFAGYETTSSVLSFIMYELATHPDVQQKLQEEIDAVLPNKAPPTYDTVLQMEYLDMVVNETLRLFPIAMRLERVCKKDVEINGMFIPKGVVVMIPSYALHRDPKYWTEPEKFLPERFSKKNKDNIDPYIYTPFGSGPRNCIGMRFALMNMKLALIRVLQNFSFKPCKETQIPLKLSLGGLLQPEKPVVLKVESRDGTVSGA
Genome polyprotein, sequence (P29990 2492-3391 limits assumed): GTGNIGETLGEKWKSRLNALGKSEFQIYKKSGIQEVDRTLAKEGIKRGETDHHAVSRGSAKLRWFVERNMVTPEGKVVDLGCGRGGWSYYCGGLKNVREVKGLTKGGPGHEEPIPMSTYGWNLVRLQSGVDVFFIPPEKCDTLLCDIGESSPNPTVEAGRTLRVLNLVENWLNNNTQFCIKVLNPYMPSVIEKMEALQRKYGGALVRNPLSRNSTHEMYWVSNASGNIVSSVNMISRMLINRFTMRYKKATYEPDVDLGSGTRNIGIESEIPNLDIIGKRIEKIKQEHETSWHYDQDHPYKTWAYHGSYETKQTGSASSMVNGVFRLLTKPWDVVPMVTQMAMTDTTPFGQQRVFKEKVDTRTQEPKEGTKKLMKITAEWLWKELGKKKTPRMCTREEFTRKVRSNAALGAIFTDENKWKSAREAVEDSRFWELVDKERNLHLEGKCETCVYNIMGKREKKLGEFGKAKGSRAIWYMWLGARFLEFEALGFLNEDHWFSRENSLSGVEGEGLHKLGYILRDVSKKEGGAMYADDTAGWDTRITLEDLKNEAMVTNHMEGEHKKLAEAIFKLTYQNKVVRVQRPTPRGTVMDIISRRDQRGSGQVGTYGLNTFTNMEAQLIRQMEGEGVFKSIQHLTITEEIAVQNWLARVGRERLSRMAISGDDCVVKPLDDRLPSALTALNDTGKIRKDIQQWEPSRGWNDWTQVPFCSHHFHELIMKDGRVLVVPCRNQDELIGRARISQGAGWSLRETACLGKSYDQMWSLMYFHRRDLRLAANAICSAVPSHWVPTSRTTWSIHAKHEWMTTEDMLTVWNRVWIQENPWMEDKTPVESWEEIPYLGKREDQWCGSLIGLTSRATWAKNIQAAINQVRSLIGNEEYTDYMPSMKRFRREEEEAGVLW
Cytochrome P450 2D6, sequence (P10635 whole entry): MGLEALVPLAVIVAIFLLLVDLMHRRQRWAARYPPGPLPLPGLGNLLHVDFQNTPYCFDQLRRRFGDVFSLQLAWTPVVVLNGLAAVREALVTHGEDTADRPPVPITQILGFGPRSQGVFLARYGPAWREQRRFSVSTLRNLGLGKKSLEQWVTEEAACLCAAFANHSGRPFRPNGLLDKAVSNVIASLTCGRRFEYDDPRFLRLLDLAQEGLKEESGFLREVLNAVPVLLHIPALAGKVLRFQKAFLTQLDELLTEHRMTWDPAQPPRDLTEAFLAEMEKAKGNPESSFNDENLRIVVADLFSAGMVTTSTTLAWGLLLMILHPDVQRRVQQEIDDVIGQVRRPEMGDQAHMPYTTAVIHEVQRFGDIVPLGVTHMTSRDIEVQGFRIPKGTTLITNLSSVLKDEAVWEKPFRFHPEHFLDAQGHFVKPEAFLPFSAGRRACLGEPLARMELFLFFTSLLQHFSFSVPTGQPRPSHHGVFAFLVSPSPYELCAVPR
Cytochrome P450 2C19, sequence (P33261 whole entry, the tested form may be a part): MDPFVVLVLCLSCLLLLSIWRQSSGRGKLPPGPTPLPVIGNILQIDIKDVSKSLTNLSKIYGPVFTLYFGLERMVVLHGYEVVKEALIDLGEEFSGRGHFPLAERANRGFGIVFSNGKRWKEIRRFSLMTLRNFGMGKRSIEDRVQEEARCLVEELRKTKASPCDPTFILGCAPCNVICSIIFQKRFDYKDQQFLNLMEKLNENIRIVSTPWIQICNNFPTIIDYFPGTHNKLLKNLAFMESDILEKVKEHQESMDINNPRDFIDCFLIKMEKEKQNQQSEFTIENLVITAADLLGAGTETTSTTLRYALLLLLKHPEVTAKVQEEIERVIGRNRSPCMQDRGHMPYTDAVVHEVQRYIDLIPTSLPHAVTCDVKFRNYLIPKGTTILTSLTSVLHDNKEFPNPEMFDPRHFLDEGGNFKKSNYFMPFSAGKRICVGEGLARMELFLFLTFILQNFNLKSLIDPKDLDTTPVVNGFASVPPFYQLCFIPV
Photoreceptor-specific nuclear receptor, sequence (Q9Y5X4 whole entry, the tested form may be a part): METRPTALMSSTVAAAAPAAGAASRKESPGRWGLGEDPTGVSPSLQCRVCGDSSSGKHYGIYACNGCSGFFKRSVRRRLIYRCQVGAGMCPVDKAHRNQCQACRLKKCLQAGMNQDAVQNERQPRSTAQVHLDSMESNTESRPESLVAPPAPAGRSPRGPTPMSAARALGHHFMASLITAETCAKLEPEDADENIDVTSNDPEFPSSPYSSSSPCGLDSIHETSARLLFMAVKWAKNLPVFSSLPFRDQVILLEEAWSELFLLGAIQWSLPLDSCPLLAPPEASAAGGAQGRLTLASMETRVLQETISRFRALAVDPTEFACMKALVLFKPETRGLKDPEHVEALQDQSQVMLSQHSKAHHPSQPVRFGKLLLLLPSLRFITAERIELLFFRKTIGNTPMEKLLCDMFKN

- AC50 [1]: 17.7 µM (active)
- AC50 [2]: 3.96 µM (active)
Compound: CN(C)CCNC(=O)c1cccc(-c2cnc3c(NC=O)cc(-c4ccc(F)cc4)cn23)c1

- AC50 (Cytochrome P450 2D6): inconclusive
- AC50 (Cytochrome P450 2C19): inconclusive
Compound: Nc1nc(Cl)cc(NCCO)n1

Compound: CC(Oc1ccc(Br)cc1)c1nc2c3ccccc3nc(S)n2n1 (stereo not given)
- IC50 [3]: 3.74 µM (active)
- AC50 (INS1): 7.23 µM (active)

- AC50 (Cytochrome P450 3A4): inconclusive
- AC50 (Cytochrome P450 1A2): 5.01 µM (inconclusive)
- AC50 (Cytochrome P450 2C9 [4]): inconclusive
Compound: Cc1cc2c(cc1C)-c1nnc(-c3ccc4ccccc4n3)n1C(C)(C)C2

Compound: Cc1ccc(S(=O)(=O)c2nnn3c2nc(N2CCCCC2)c2ccccc23)cc1
- IC50 [5]: 2.96 µM (active)
- EC50 [6]: 1.14 µM (active)
- EC50 [7]: > 53 µM (inactive)
- IC50 [8]: 10 µM (active)
- EC50 [9]: > 60 µM (inconclusive)

- IC50 [5]: 6.18 µM (active)
- EC50 [7]: > 53 µM (inactive)
- IC50 [8]: > 20 µM (inactive)
- IC50 (Genome polyprotein): 58.3 µM (active)
- IC50 (Aminopeptidase N): 34.2 µM (active)
Compound: CCOc1ccc(/C=C2\SC(=S)N(NS(=O)(=O)c3ccc(C)cc3)C2=O)cc1OC

- IC50 [5]: 5.69 µM (active)
- EC50 [7]: > 53 µM (inactive)
- IC50 [8]: > 20 µM (inactive)
Compound: COc1ccc(C(C(=O)NC2CCCC2)N(C(=O)c2ccoc2C)c2cc(C)cc(C)c2)cc1 (stereo not given)

- AC50 [1]: 29.5 µM (active)
Compound: Cc1ccc2nc3c(cc(C(=O)NCCN4CCOCC4)c(=N)n3CCCN3CCOCC3)c(=O)n2c1

- AC50 (Cytochrome P450 3A4): inconclusive
- AC50 (Cytochrome P450 2C9 [10]): 39.8 µM (inconclusive)
Compound: COC(=O)N1CCC2(CC1)CCN(C(c1ccccc1)c1ccccc1)CC2
